Each block holds one substance with its values, some of them ahead of it.
Legend:
[1] = target: Coagulation factor FXa (Homo sapiens, UniProt P00742); experiment: Inhibitory activity on coagulation factor FXa (chromogenic substrate CS-11(22)); format: biochemical; conditions: sample 1 mg/mL; for Inhibitory effect on coagulation factor FXa: incubated at 37° C. for 1 h
Description: (§1) • a. 100 μL of FXa (5 nM) and 50 μL of the sulfate gluco-galacto-oligosaccharide sample (1 mg/mL) were mixed in a 96-well plate, incubated at 37° C. for 1 h, added with 50 μL of a substrate CS-11(22) (1.77 mM), and detected at a wavelength of 405 nm for 60 min, detecting once every minute. • b. 100 μL of HFXIa (human coagulation factor XIa, 1 nM) and 50 μL of the sulfate gluco-galacto-oligosaccharide sample (1 mg/mL) were mixed in a 96-well plate, incubated at 37° C. for 1 h, added with 50 μL of a substrate S2366 (1 mM), and detected at a wavelength of 405 nm for 60 min, detecting once every minute. • c. 100 μL of FXIIa (4 nM) and 50 μL of the sulfate gluco-galacto-oligosaccharide sample (1 mg/mL) were mixed in a 96-well plate, incubated 37° C. for 1 h, added with 50 μL of a substrate Pefachrome FXIIa/TH5253 (1 mM), and detected at a wavelength of 405 nm for 60 min, detecting once every minute. • d. 100 μL of Trypsin (8.3 nM) and 50 μL of the sulfate gluco-galacto-oligosaccharide sample (1 mg/mL) were mixed in a 96-well plate, incubated 37° C. for 1 h, added with 50 μL of a substrate CS-11(22) (1 mM), and detected at a wavelength of 405 nm for 60 min, detecting once every minute. • e. 100 μL of Thrombin (0.2 IU/mL) and 50 μL of the sulfate gluco-galacto-oligosaccharide sample (1 mg/mL) were mixed in a 96-well plate, incubated at 37° C. for 1 h, added with 50 μL of a substrate CS-01(38) (400 μM), and detected at a wavelength of 405 nm for 60 min, detecting once every minute. • f. 100 μL of Kallikrein (1 nM) and 50 μL of the sulfate gluco-galacto-oligosaccharide sample (1 mg/mL) were mixed in a 96-well plate, incubated 37° C. for 1 h, added with 50 μL of a substrate CS-31(02) (1 mM), and detected at a wavelength of 405 nm for 60 min, detecting once every minute.
(§2) Data processing was conducted using the software Graphpad Prism 6.0. Regression analysis was conducted with the reaction time as an abscissa and the absorbance value at 405 nm as an ordinate.
The calculated inhibition rate=(V0−V1)/V0×100%. […] The degree of sulfation of the sulfate gluco-galacto-oligosaccharide was controlled by controlling the ratio of gluco-galacto-oligosaccharide and sulfating reagent. […] It was seen that the more sulfate groups on average per sugar residue, the higher the inhibition rate of FXa by the sulfate gluco-galacto-oligosaccharide.

[2] = target: T1, HFXIa (human coagulation factor XIa) (Homo sapiens, UniProt P03951); experiment: Inhibitory activity on coagulation factor XIa (chromogenic substrate S2366); format: biochemical; conditions: sample 1 mg/mL, incubated at 37° C. for 1 h
T1 construct: HFXIa (human coagulation factor XIa, 1 nM)
T1 sequence (P03951 388-625 limits assumed): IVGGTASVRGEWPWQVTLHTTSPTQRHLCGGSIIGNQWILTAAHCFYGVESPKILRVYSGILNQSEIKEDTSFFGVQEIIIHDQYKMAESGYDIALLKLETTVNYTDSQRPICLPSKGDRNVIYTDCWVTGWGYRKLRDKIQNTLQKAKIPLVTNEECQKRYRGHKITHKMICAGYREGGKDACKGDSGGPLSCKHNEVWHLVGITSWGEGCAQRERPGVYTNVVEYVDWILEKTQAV
T1 sequence (P03951 19-387 limits assumed): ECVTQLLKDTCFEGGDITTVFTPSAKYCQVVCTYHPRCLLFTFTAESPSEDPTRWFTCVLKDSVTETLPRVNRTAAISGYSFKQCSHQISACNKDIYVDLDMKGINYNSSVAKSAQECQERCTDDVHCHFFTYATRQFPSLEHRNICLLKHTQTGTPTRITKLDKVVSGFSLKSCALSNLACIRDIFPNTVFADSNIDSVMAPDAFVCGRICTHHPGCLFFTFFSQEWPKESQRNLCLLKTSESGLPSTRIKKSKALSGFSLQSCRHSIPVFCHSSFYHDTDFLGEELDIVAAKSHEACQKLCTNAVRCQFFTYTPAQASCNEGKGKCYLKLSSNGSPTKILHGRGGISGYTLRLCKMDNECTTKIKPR
Description: as §1, with “100 μL of Thrombin (0.2 IU/mL) and 50 μL of the sulfate gluco-galacto-oligosaccharide sample (1 mg/mL) were mixed in a 96-well plate, incubated at 37° C. for 1 h, added with 50 μL of a substrate CS-01(38) (400 μM), and detected at a wavelength of 405 nm for 60 min, detecting once every minute. • f. 100 μL of Kallikrein (1 nM) and 50 μL of the sulfate gluco-galacto-oligosaccharide sample (1 mg/mL) were mixed in a 96-well plate, incubated 37° C. for 1 h, added with 50 μL of a substrate CS-31(02) (1 mM), and detected at a wavelength of 405 nm for 60 min, detecting once every minute.” left out
as §2

[3] = Tail tip bleeding time (bleeding risk); format: in vivo, C57/BL-6J mice; conditions: tail vein, mice; for cumulative bleeding time: 10 min after administration, capped at 20 min
Description: (§3) The experimental animals were male C57/BL-6J mice, weighing 18 g to 20 g. The mice were housed under standard experimental conditions with a 12-hour light-12-hour dark cycle with free access to water and food. The mice were anesthetized by intraperitoneal injection of 5% chloral hydrate, and administration of the drug was administered through the tail vein after confirming that the mice were completely anesthetized and had no eyelid reflex. The mice were randomly divided into three groups. A first group was a negative control group and was injected with physiological saline through the tail vein; a second group was a low-dose group, with 0.5 mg/mL sulfate gluco-galacto-oligosaccharide injected into the tail vein; and a third group was a high-dose group, with 1.0 mg/mL sulfate gluco-galacto-oligosaccharide injected into the tail vein.
10 min after administration, the mouse was placed stably with its tail in a naturally straightened state. The mouse tail was cut off 3 mm from the tip, and then immersed in a silanized tube filled with 37° C. physiological saline. Start timing from cutting off the tail tip, 20 min. the accumulated bleeding time t after cutting off the tail tip of the mouse was recorded with a stopwatch. If the bleeding time t was greater than 20 min, it was recorded as 20 min.
Data processing was conducted using the Graphpad Prism 6.0 software. A dot plot of sample concentration was made versus bleeding time. P<0.05 indicated a significant difference.
Bleeding time refers to a duration required from bleeding to natural hemostasis after capillary damage. In the negative control group (physiological saline group), the cumulative bleeding time was 10.35±5.48 min.

[4] = target: T2, Coagulation factor FXIIa (Homo sapiens, UniProt P00748); experiment: Inhibitory activity on FXIIa (chromogenic substrate Pefachrome FXIIa/TH5253); format: biochemical; conditions: sample 1 mg/mL, incubated at 37° C. for 1 h
T2 sequence (P00748 373-615 limits assumed): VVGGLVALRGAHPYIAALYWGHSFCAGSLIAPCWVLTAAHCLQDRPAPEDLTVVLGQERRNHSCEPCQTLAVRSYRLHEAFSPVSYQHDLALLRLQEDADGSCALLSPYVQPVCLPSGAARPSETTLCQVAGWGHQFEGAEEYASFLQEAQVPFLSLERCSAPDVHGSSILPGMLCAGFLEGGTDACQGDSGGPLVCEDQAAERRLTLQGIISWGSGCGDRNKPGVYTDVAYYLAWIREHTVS
Description: as §1, with “100 μL of Thrombin (0.2 IU/mL) and 50 μL of the sulfate gluco-galacto-oligosaccharide sample (1 mg/mL) were mixed in a 96-well plate, incubated at 37° C. for 1 h, added with 50 μL of a substrate CS-01(38) (400 μM), and detected at a wavelength of 405 nm for 60 min, detecting once every minute. • f. 100 μL of Kallikrein (1 nM) and 50 μL of the sulfate gluco-galacto-oligosaccharide sample (1 mg/mL) were mixed in a 96-well plate, incubated 37° C. for 1 h, added with 50 μL of a substrate CS-31(02) (1 mM), and detected at a wavelength of 405 nm for 60 min, detecting once every minute.” left out
as §2

[5] = target: Kallikrein (Homo sapiens, UniProt P03952); experiment: Inhibitory activity on kallikrein (chromogenic substrate CS-31(02)); format: biochemical; conditions: sample 1 mg/mL, incubated at 37° C. for 1 h
Sequence of Kallikrein (P03952 391-638 limits assumed): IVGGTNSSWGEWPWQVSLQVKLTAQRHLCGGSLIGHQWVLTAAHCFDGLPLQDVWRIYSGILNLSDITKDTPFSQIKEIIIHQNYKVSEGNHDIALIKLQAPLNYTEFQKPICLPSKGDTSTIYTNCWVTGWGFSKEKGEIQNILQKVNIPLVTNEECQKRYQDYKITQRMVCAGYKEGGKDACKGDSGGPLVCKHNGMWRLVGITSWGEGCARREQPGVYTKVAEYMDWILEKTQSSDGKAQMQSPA
Sequence of Kallikrein (P03952 20-390 partner limits assumed): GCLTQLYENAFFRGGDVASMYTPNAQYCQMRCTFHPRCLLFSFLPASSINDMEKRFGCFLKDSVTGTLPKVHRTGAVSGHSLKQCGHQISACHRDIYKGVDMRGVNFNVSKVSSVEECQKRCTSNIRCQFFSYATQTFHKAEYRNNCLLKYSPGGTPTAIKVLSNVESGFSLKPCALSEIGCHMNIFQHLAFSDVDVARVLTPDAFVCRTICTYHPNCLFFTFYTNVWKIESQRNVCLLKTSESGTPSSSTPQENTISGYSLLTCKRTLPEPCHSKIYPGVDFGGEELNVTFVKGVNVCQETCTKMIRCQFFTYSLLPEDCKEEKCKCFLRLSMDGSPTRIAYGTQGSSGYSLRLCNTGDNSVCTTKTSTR
Description: as §1, with “100 μL of Thrombin (0.2 IU/mL) and 50 μL of the sulfate gluco-galacto-oligosaccharide sample (1 mg/mL) were mixed in a 96-well plate, incubated at 37° C. for 1 h, added with 50 μL of a substrate CS-01(38) (400 μM), and detected at a wavelength of 405 nm for 60 min, detecting once every minute. • f. 100 μL of Kallikrein (1 nM) and 50 μL of the sulfate gluco-galacto-oligosaccharide sample (1 mg/mL) were mixed in a 96-well plate, incubated 37° C. for 1 h, added with 50 μL of a substrate CS-31(02) (1 mM), and detected at a wavelength of 405 nm for 60 min, detecting once every minute.” left out
as §2

[6] = system: ferric chloride-induced carotid artery thrombosis; experiment: Ferric chloride-induced carotid artery thrombosis model, blood vessel occlusion time; format: in vivo, C57/BL-6J mice; conditions: tail vein, mice
Description: as §3, with “vein. After tail vein administration, the mouse carotid arteries were dissected, and a filter paper piece (1 mm×2 mm) dipped in 6.0% ferric chloride solution was applied to the outer wall of the mouse carotid artery to allow induction for 3 min to construct a ferric chloride-induced carotid artery thrombosis model.” for “vein.”
The blood flow and thrombosis of the mouse carotid arteries were observed using a laser speckle flow imager, and the mouse carotid arteries were observed under the moorFLPI-2 lens for 15 min. The carotid arteries of the mice at the end of the observation were carefully dissected and stained with HE.
Charts were produced using GraphPad Prism 6.0 software, and statistical differences were analyzed using one-way analysis of variance and Dunnett's multiple comparisons. P<0.05 indicated a significant difference.
Blood vessel occlusion time refers to a duration from removal of the filter paper soaked in ferric chloride to the blood vessel occlusion. If no thrombosis was observed 15 min after removal of the ferric chloride filter paper, 15 min was considered as the vessel occlusion time. Combined with FIG. 3, in the negative control group (physiological saline group), the average blood vessel occlusion time was 4.5±0.23 min. […]

[7] = target: T3, Thrombin (Homo sapiens, UniProt P00734); experiment: Inhibitory activity on thrombin (chromogenic substrate CS-01(38)); format: biochemical; conditions: sample 1 mg/mL, incubated at 37° C. for 1 h
T3 construct: 100 μL of Thrombin (0.2 IU/mL)
Description: as §1, with “100 μL of Thrombin (0.2 IU/mL) and 50 μL of the sulfate gluco-galacto-oligosaccharide sample (1 mg/mL) were mixed in a 96-well plate, incubated at 37° C. for 1 h, added with 50 μL of a substrate CS-01(38) (400 μM), and detected at a wavelength of 405 nm for 60 min, detecting once every minute. • f. 100 μL of Kallikrein (1 nM) and 50 μL of the sulfate gluco-galacto-oligosaccharide sample (1 mg/mL) were mixed in a 96-well plate, incubated 37° C. for 1 h, added with 50 μL of a substrate CS-31(02) (1 mM), and detected at a wavelength of 405 nm for 60 min, detecting once every minute.” left out
as §2

[8] = system: intrinsic coagulation pathway; experiment: Activated partial thromboplastin time (APTT) of plasma from mice after tail vein injection; format: in vivo, C57/BL-6J mice; conditions: 0.25, 0.5 and 1.0 mg/mL injected into the tail vein
Description: The experimental animals were male C57/BL-6J mice, weighing 18 g to 20 g. The mice were housed under standard experimental conditions with a 12-hour light-12-hour dark cycle with free access to water and food. The mice were anesthetized by intraperitoneal injection of 5% chloral hydrate, and administration of the drug was administered through the tail vein after confirming that the mice were completely anesthetized and had no eyelid reflex. The mice were randomly divided into four groups. […]
Activated partial thromboplastin time (APTT) is a duration required to observe plasma coagulation after adding an APTT reagent and calcium ions to the tested plasma. […] The APTT was measured according to the operating procedures in the kit instructions, and the fibrin formation time was read on the coagulometer. […]
The coagulation time of the physiological saline group was recorded as 1 times, and the multiples of APTT of the sulfate gluco-galacto-oligosaccharide samples with different concentrations relative to the physiological saline group were calculated.

[9] = system: Trypsin; experiment: Inhibitory activity on trypsin (chromogenic substrate CS-11(22)); format: biochemical; conditions: sample 1 mg/mL, incubated at 37° C. for 1 h
Description: as §1, with “100 μL of Thrombin (0.2 IU/mL) and 50 μL of the sulfate gluco-galacto-oligosaccharide sample (1 mg/mL) were mixed in a 96-well plate, incubated at 37° C. for 1 h, added with 50 μL of a substrate CS-01(38) (400 μM), and detected at a wavelength of 405 nm for 60 min, detecting once every minute. • f. 100 μL of Kallikrein (1 nM) and 50 μL of the sulfate gluco-galacto-oligosaccharide sample (1 mg/mL) were mixed in a 96-well plate, incubated 37° C. for 1 h, added with 50 μL of a substrate CS-31(02) (1 mM), and detected at a wavelength of 405 nm for 60 min, detecting once every minute.” left out
as §2

Sequence of Coagulation factor FXa (P00742 235-488 limits assumed): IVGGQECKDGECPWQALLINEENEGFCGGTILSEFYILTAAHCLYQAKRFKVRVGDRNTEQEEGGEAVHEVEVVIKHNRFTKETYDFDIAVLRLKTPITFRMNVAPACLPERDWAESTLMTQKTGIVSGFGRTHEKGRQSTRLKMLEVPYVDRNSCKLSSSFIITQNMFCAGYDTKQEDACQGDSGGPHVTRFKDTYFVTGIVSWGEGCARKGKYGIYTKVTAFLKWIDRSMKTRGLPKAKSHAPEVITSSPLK
Sequence of Coagulation factor FXa (P00742 41-179 limits assumed): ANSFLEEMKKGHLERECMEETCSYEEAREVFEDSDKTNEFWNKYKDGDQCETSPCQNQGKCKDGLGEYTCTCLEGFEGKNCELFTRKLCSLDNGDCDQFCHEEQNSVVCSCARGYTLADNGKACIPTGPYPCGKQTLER

Inhibitory effect on coagulation factor FXa [1]: no inhibitory activity
Substance: gluco-galacto-oligosaccharide [reference compound]

Substance: sulfate gluco-galacto-oligosaccharide
Inhibitory effect on coagulation factor FXIa [2]: No inhibition | Difference of cumulative bleeding time from physiological saline group ([3]; 0.5 mg/mL and 1.0 mg/mL): no statistically significant difference | cumulative bleeding time ([3]; 0.5 mg/mL): 11.88 ± 4.44 min | cumulative bleeding time ([3]; 1.0 mg/mL): 11.60 ± 4.13 min | Inhibitory effect on coagulation factor FXIIa [4]: No inhibition | Inhibitory effect on Kallikrein [5]: No inhibition | average blood vessel occlusion time ([6]; 0.5 mg/mL, observed 15 min): 5.4 ± 1.37 min | Blood flow in carotid artery ([6]; 1.0 mg/mL): remained unchanged | average blood vessel occlusion time ([6]; 1.0 mg/mL, 15 min recorded if no thrombosis within 15 min): 15 min | Inhibitory effect on coagulation factor FXa [1]: Inhibition | Inhibition rate of FXa ([1]; listed as sulfate gluco-galacto-oligosaccharide with averagely 1.65 sulfate groups per sug): 57.6% | Inhibitory effect on Thrombin [7]: No inhibition | Effect on APTT (plasma coagulation time relative to physiological saline group) [8]: significant impact on APTT | Inhibitory effect on Trypsin [9]: No inhibition

Inhibition rate of FXa [1]: 10.2%
Substance: sulfate gluco-galacto-oligosaccharide [0.47]

Inhibition rate of FXa [1]: 39.2%
Substance: sulfate gluco-galacto-oligosaccharide [1.23]

Inhibition rate of FXa [1]: 65.5%
Substance: sulfate gluco-galacto-oligosaccharide [2.10]

Inhibition rate of FXa [1]: 78.4%
Substance: sulfate gluco-galacto-oligosaccharide [2.52]

— patent US20240285674A1, “USE OF SULFATE GLUCO-GALACTO-OLIGOSACCHARIDE IN PREPARATION OF ANTICOAGULANT AND/OR ANTITHROMBOTIC DRUG” (NANJING UNIVERSITY OF SCIENCE AND TECHNOLOGY, priority 2021, published 2024)
